Data from article PMC6927504, “Screening of House Dust from Chinese Homes for Chemicals with Liver X Receptors Binding Activities and Characterization of Atherosclerotic Activity Using an in Vitro Macrophage Cell Line and ApoE^−/− Mice” (Environmental Health Perspectives, 2019).

Test system: ABCA1
Assay: qRT-PCR of LXR target gene ABCA1 in RAW264.7 macrophages
Type: cell-based
Conditions: vehicle-treated cells set to 1, p<0.01
Description: RAW264.7 cells were obtained from the National Infrastructure of Cell Line Resource of Beijing, China, and the cells used for the experiment were cultured for at least three passages. Dulbecco’s Modified Eagle’s Medium (DMEM)-F12 medium containing 10% fetal bovine serum (FBS) was employed to culture the RAW264.7 cells. RAW264.7 cells were incubated at 37°C with 5% carbon dioxide. The RAW264.7 cells were plated at 2.5×10^5 cells/well (6-well plates), 6.0×10^4 cells/well (24-well plates), and 10^4 cells/well (96-well plates). The RAW264.7 cells were plated and grown overnight; then the medium was removed and fresh DMEM-F12 contained with 0.1% DMSO (control; n=3 ) or TPHP at the concentrations of 1–20,000 nM ( n=3 per group) was added. […] Then the cells were used for the quantitative reverse transcription (qRT)-PCR, cellular cholesterol efflux assay, and foam cell formation experiment.
Total RNA was isolated from RAW264.7 cells and mouse peritoneal macrophages using TRIzol reagent according to the manufacturer’s instructions. Then a Nanovue Plus™ spectrophotometer (GE Healthcare Life Science) was used to analyze the concentration, quality, and purity of the RNA. Total RNA ( 1μg ) was mixed with oligo deoxythymine (dT) ( 1μL ) at 70°C for 5 min and then combined with a mixture containing Moloney murine leukemia virus (MMLV) reverse transcriptase ( 1μL ), deoxy-ribonucleoside triphosphate (dNTP) ( 1.25μL ), Recombinant RNasin® Ribonuclease Inhibitor (Promega) ( 0.65μL ), and MMLV buffer ( 5μL ) at 42°C for 60 min. The SYBR® Green PCR Kit (TOYOBO) was used for RT-PCR analysis. Real-time fluorescence detection was performed using the StepOnePlus™ sequence detection system (Applied Biosystems). […] The following primers were designed and purchased from Sangon Biotech:
• actin: 5′-[…]-3′ and 5′-[…]-3′ ATP-binding cassette transporter A1 (ABCA1): 5′-[…]-3′ and 5′-[…]-3′ • ATP-binding cassette transporter G1 (ABCG1): 5′-[…]-3′ and 5′-[…]-3′.

`O=P(Oc1ccccc1)(Oc1ccccc1)Oc1ccccc1` [TPHP, triphenyl phosphate] was tested, and the “ABCA1 gene expression relative to control” value (5,000 nM) was 0.49±0.06 fold, the “ABCA1 gene expression relative to control” value (10,000 nM) was 0.38±0.01 fold and the “ABCA1 gene expression relative to control” value (20,000 nM) was 0.30±0.03 fold.
